Test results reported in US20050130903A1, “Therapeutic agents and methods of use thereof for the modulation of angiogenesis” (priority 2000, published 2005).
Where two headings read alike, the source gives them in different places.

How the values were obtained:
human tumor cell lines = experiment: panel of cancer cell lines, overall; format: cell-based; conditions: in words, summary of Table VIII
Procedure: The compound of example 5 was also evaluated against a panel of cancer cell lines (Alley, M. C. et al. […] Cancer Research 48: 589-601; Grever, M. R., et al. (1992) Seminars in Oncology, Vol. 19, No. 6, pp 622-638; Boyd, M. R., and Paull, K. D. (1995) Drug Development Research 34: 91-109). The human tumor cell lines of the cancer screening panel were grown in RPMI 1640 medium containing 5% fetal bovine serum and 2 mM L-glutamine. Cells were inoculated into 96 well microtiter plates in 100 μL at plating densities ranging from 5,000 to 40,000 cells/well depending on the doubling time of individual cell lines. […]
Following drug addition, the plates were incubated for an additional 48 hours at 37° C., 5% CO2, 95% air, and 100% relative humidity. […] Bound stain was subsequently solubilized with 10 mM trizma base, and the absorbance was read on an automated plate reader at a wavelength of 515 nm. […] Using the seven absorbance measurements [time zero, (Tz), control growth, (C), and test growth in the presence of drug at the five concentration levels (Ti)], the percentage growth was calculated at each of the drug concentrations levels.
Percentage growth inhibition was calculated as: [(Ti−Tz)/(C−Tz)]×100 for concentrations for which Ti>/=Tz [(Ti−Tz)/Tz]×100 for concentrations for which Ti<Tz. […]

[1] = plasma stability in human plasma; format: in vitro ADME; conditions: human
Procedure: The plasma stability of the angiogenesis inhibitor compounds of the invention was also tested in human plasma at 37° C. (at a 20 μM concentration of the angiogenesis inhibitor compound). The matrix minus the test angiogenesis inhibitor compound was equilibrated at 37° C. for 3 minutes. The assay was initiated by addition of the test compound, and the reaction mixture was incubated in a shaking water bath at 37° C. […] The supernatant was analysed by Liquid Chromatography/Mass spectrometry (LC/MS) using a four point standard curve to obtain percent recovery.
The parent compound remaining (relative to time 0) in the incubation mixture was plotted as a function of time; a first order exponential equation was fit to the observed data, and the elimination half-lives associated with the disappearance of the test angiogenesis inhibitor compound were determined.

[2] = stability in liver microsomes; format: in vitro ADME, rat; conditions: male, rat, liver microsomes, pH 7.4, male rat liver microsomes 0.5 mg/mL, NADPH regenerating system
Procedure: The stability of the angiogenesis inhibitor compounds in liver microsomes was also tested. The test angiogenesis inhibitor compound at a concentration of 3 μM was incubated with male rat liver microsomes (0.5 mg/mL protein) in the presence of a NADPH regenerating system (1 mM NADP, 10 mM G6P, 1 U/mL G6PdH2, 3 mM MgCl2 ) in 100 mM Phosphate buffer at pH 7.4 at 37° C. Incubations were performed in the presence and absence of 1 μM epoxide hydrolase (EH) inhibitor N-cyclohexyl-N′-(3-phenylpropyl)urea (M. Morisseau et al. (1999) PNAS 96:8849-54) and quantitative analysis performed using LC/MS/MS.
The parent compound remaining (relative to time 0) in the incubation mixture was plotted as a function of time; a first order exponential equation was fit to the observed data, and the elimination half-lives associated with the disappearance of the test compound were determined.

[3] = test system: collagen-induced arthritis; experiment: collagen-induced arthritis model; format: in vivo, Louvain rats; conditions: for mean radiological evaluation score: control group 2.2
Procedure: The efficacy of the compound described above in example 5 was evaluated using a collagen-induced arthritis model. Briefly, syngeneic 8-week-old female Louvain rats were immunized intradermally under ether anesthesia on Day 0 with 0.5 mg chick collagen II (Genzyme, Boston, Mass.) solubilized in 0.1M acetic acid and emulsified in Incomplete Freund's Adjuvant (Difco, Detroit, Mich.). Using this method, more than 90% of rats typically develop synovitis in both hind limbs 10-14 days post immunization. […] The compound of example 5 was dissolved in a combination of ethanol and distilled water. The rats were dosed commencing on day 10 post immunization as follows: (1) control group: vehicle only daily via intravenous injection (iv) (12 rats), (2) high dose group: 30 mg/kg of the compound of example 5 iv every other day (12 rats), (3) low dose group: 15 mg/kg of the compound of example 5 iv every day (12 rats) and (4) oral group: 100 mg/kg of the compound of example 5 every other day by gavage (11 rats).
Daily clinical evaluations of each paw were graded on an integer scale ranging from 0 to 4, where a score of 0 indicates a normal, unaffected limb, and 4 indicates severe joint destruction. The clinical score is the sum of the four limb scores, and has a maximum possible value of 16. Collagen induced arthritis typically develops only in the hind limbs; therefore, a score of 6 to 8 represents severe arthritis.
Radiologic evaluations of the hind limbs were performed by an investigator blinded to the treatment protocol. The score assigned to each limb was based on (1) the degree of soft tissue swelling, (2) narrowing of the space between joints, (3) degree of periosteal new bone formation and (4) the presence of erosions or ankylosis. Each limb was scored on a scale of 1 to 3, with 1 representing a normal limb and 3 representing severe joint destruction.

CO[C@@H]1[C@H](OC(=O)N[C@@H](C(N)=O)C(C)C)CC[C@]2(CO2)[C@H]1[C@@]1(C)O[C@@H]1CC=C(C)C [Example 5, (1-Carbamoyl-2-methyl-propyl)-carbamic acid-(3R,4S,5S,6R )-5-methoxy-4-[(2R,3R)-2-methyl-3-(3-methyl-but-2-enyl)-oxiranyl]-1-oxa-spiro[2.5]oct-6-yl ester]
inhibitory effect on tumor cell lines (human tumor cell lines): significant inhibitory effect on a wide variety of tumor cell lines | recovery at 0 min, 20 μM [1]: 100% | recovery at 15 min, 20 μM [1]: 108% | recovery at 30 min, 20 μM [1]: 103% | recovery at 60 min, 20 μM [1]: 97% | recovery at 90 min, 20 μM [1]: 129% | recovery at 120 min, 20 μM [1]: 107% | half-life at 20 μM ([1]; plasma): ≥ 500 min | half-life at 3 μM ([2]; with 1 μM EH inhibitor, read-out: T1/2 (with EH inhibitor)): 12.1 ± 1 min | half-life at 3 μM ([2]; without EH inhibitor, read-out: T1/2 (without EH inhibitor)): 11.9 ± 1 min | mean daily clinical score (FIG. 2) ([3]; each treatment group, 19 day period from day 10): significant therapeutic benefit | mean radiological evaluation score ([3]; high dose group: 30 mg/kg iv every other day): 0.6 | mean radiological evaluation score ([3]; low dose group: 15 mg/kg iv every day): 0.6 | mean radiological evaluation score ([3]; oral group: 100 mg/kg every other day by gavage): 1.6
